Laboratory results: patent publication US10350271B2, “Lipidated peptides for lowering blood glucose” (USTAV ORGANICKE CHEMIE A BIOCHEMIE AKADEMIE VED CR, V.V.I., priority 2014, dated 2019)
Read-outs that look alike come from different tables or passages of the source. Square brackets hold non-standard residues; d marks the D form. Ends that are not written are not given here. Peptide text beside a SMILES is read from it. * marks the point of attachment. 1Nal = N[C@@H](Cc1cccc2ccccc12)C(=O)O; Palmitoyl = CCCCCCCCCCCCCCCC(=O)*; Myristoyl = CCCCCCCCCCCCCC(=O)*; X1 = CONC(=O)[C@H](Cc1ccccc1)N*; Nle = CCCC[C@H](N)C(=O)O

Columns and labels:
rat PrRP receptor = target: T1, rat PrRP receptor (Rattus norvegicus, UniProt Q64121); test: Competitive binding in RC-4B/C rat pituitary cells (125I-rat PrRP31); conditions: for % of PrRP31, RC-4B/C rat pituitary cells: affinity relative to PrRP31
T1 construct: host or cells: RC-4B/C rat pituitary cell line
T1 sequence (Q64121 1-370): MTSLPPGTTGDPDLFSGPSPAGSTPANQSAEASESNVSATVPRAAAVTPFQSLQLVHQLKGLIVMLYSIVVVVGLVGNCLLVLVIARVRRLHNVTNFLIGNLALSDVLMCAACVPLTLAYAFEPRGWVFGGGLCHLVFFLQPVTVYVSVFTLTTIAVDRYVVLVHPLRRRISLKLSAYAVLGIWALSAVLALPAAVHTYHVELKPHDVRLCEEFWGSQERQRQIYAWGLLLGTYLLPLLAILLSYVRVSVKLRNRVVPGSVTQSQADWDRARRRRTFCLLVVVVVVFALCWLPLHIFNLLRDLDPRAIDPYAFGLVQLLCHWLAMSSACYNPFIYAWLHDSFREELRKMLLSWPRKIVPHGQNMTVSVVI
Method: (§1) Competitive binding experiments were performed according to Motulsky and Neubig (Motulsky, A., et al., “Analyzing radioligand binding data,” Curr Protoc Neurosci, Chapter 7, Unit 7.5, 2002). Binding experiments were conducted with rat pituitary cells, and with Chinese Hamster Ovary (CHO) cells as follows:
The rat pituitary cell line RC-4B/C (ATCC, Manassas, USA) was grown on 24-well plates which had their bottom coated with polyethyleneimine. The cells were grown to the optimal density of 300-450 thousand cells per well. The following agents were used for the experiment: binding buffer (20 mmol·l^−1 HEPES, Ph 7.4; 118 mmol·l^−1 NaCl, 4.7 mmol·l^−1 KCl, 5 mmol·l^−1 MgCl2, 5.5 mmol·l^−1 glucose, 1 mg/ml BSA, 0.1 BPTI), unlabeled analogs of PrRP (i.e. the analog being tested) at a final concentration between 10^−11 to 10^−4 mol·l^−1, and rat ^125I-PrRP31 (labeled with radioactive Iodine-125) at a final concentration of […] (Maixnerová et al., 2011).
(§2) Plates were incubated for 60 minutes at room temperature. After incubation, the cells were solubilized in 0.1 mol/l solution of NaOH, and the radioactivity bound to the cells was counted using a γ-counter. The experiments were performed in duplicate, and repeated at least three times.
(§3) Graph Pad Prism Software (San Diego, Calif., USA) was used for evaluating the competitive binding experiments. Nonlinear regression was performed using a onsite binding model.

[1] = target: T2, human PrRP receptor GPR10 (Homo sapiens, UniProt P49683); test: Competitive binding in CHO cells transfected with human GPR10 (human 125I-PrRP31); conditions: for % of PrRP31, GPR10 human receptor transfected in CHO cells: affinity relative to PrRP31
T2 construct: host or cells: CHO cells
T2 sequence (P49683 1-370): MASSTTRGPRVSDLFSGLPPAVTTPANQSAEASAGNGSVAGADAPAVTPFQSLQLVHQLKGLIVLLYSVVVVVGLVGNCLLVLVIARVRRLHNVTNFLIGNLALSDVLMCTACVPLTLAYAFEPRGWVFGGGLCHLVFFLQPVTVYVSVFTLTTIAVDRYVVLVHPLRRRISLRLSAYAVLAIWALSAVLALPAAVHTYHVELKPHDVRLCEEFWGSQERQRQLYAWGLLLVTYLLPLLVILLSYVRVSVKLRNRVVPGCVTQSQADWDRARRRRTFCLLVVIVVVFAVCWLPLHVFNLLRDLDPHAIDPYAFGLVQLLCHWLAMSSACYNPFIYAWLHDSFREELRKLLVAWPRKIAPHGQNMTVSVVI
Method: as §1
CHO cells transfected with human PrRP receptor GPR10 (Perkin Elmer, USA) were grown on 24-well plates coated with polyethyleneimine. The cells were grown to the optimal density of 40-80 thousand cells per well. The following agents were used for the experiment: binding buffer (25 mmol·l^−1 Tris, pH 7.4; 118 mmol·l^−1 NaCl, 10 mmol·l^−1 MgCl2, 10 mmol·l^−1 CaCl2, 5.5 mmol·l^−1 glucose, 0.5 mg/ml BSA), unlabeled analogs of PrRP (i.e. the analog being tested) at a final concentration between 10^−11 to 10^−4 mol·l^−1, and radiolabeled human ^125I-PrRP31 at a final concentration of 5×10^−11 mol·l^−1.
as §2, §3

[2] = CHO cells, human 125I-PrRP31, read-out: Ki, GPR10 human receptor transfected in CHO cells

% of PrRP31, RC-4B/C rat pituitary cells (rat PrRP receptor) [%]	% of PrRP31, GPR10 human receptor transfected in CHO cells [1] [%]	Compound	also measured
124	292	CCCCCCCCCCCCCC(=O)N[C@@H](CO)C(=O)N[C@@H](CCCNC(=N)N)C(=O)N[C@@H](C)C(=O)N[C@@H](Cc1c[nH]cn1)C(=O)N[C@@H](CCC(N)=O)C(=O)N[C@@H](Cc1c[nH]cn1)C(=O)N[C@@H](CO)C(=O)N[C@@H](CCCC)C(=O)N[C@@H](CCC(=O)O)C(=O)N[C@H](C(=O)N[C@@H](CCCNC(=N)N)C(=O)N[C@H](C(=O)N1CCC[C@H]1C(=O)N[C@@H](CC(=O)O)C(=O)N[C@H](C(=O)N[C@@H](CC(N)=O)C(=O)N1CCC[C@H]1C(=O)N[C@@H](C)C(=O)N[C@@H](Cc1c[nH]c2ccccc12)C(=O)N[C@@H](Cc1ccc(O)cc1)C(=O)N[C@H](C(=O)NCC(=O)N[C@@H](CCCNC(=N)N)C(=O)NCC(=O)N[C@H](C(=O)N[C@@H](CCCNC(=N)N)C(=O)N1CCC[C@H]1C(=O)N[C@H](C(=O)NCC(=O)N[C@@H](CCCNC(=N)N)C(=O)N[C@@H](Cc1cccc2ccccc12)C(N)=O)C(C)C)[C@@H](C)CC)[C@@H](C)O)[C@@H](C)CC)[C@@H](C)O)[C@@H](C)O [Analog 11] (Myristoyl-SRAHQHS[Nle]ETRTPDINPAWYTGRGIRPVGR[1Nal]-NH2)	–
0.00004	–	CCCC[C@H](NC(=O)CNC(=O)[C@H](CCCNC(=N)N)NC(=O)[C@@H]1CCCN1C(=O)[C@H](Cc1ccc(O)cc1)NC(=O)[C@H](Cc1c[nH]c2ccccc12)NC(=O)[C@H](Cc1c[nH]cn1)NC(=O)[C@@H](NC(=O)[C@H](CC(=O)O)NC(=O)[C@H](C)NC(=O)[C@@H]1CCCN1C(=O)[C@H](CCCNC(=N)N)NC(=O)[C@H](CCC(N)=O)NC(=O)[C@H](Cc1c[nH]cn1)NC(=O)[C@@H](N)CO)[C@@H](C)O)C(=O)N[C@@H](Cc1ccccc1)C(=O)N1CCC[C@H]1C(=O)N[C@H](C(=O)N[C@H](C(=O)NCC(=O)N[C@@H](CCCNC(=N)N)C(=O)N[C@H](C(=O)N[C@H](C(=O)N[C@@H](C)C(=O)N[C@@H](CCCNC(=N)N)C(=O)N[C@@H](CC(N)=O)C(=O)NCC(=O)N[C@@H](CCC(=O)O)C(=O)N[C@H](C(=O)N[C@@H](CO)C(=O)N[C@@H](CCCNC(=N)N)C(=O)O)C(C)C)[C@@H](C)O)[C@@H](C)CC)[C@@H](C)CC)[C@@H](C)O [Analog 19] (H-SHQRPADTHWYPRG[Nle]FPTIGRITARNGEVSR-OH; N-terminus and C-terminus assumed)	Ki (rat PrRP receptor; RC-4B/C cells, displacement of 125I-rat PrRP31, read-out: Ki, RC-4B/C rat pituitary cells ^25I-rat PrRP31): 1320 ± 1260 µM
–	92	CCCCCCCCCCCCCCCC(=O)N[C@@H](CO)C(=O)N[C@@H](CCCNC(=N)N)C(=O)N[C@H](C(=O)N[C@@H](Cc1c[nH]cn1)C(=O)N[C@@H](CCCNC(=N)N)C(=O)N[C@@H](Cc1c[nH]cn1)C(=O)N[C@@H](CO)C(=O)N[C@@H](CCSC)C(=O)N[C@@H](CCC(=O)O)C(=O)N[C@H](C(=O)N[C@@H](CCCNC(=N)N)C(=O)N[C@H](C(=O)N1CCC[C@H]1C(=O)N[C@@H](CC(=O)O)C(=O)N[C@H](C(=O)N[C@@H](CC(N)=O)C(=O)N1CCC[C@H]1C(=O)N[C@@H](C)C(=O)N[C@@H](Cc1c[nH]c2ccccc12)C(=O)N[C@@H](Cc1ccc(O)cc1)C(=O)N[C@@H](C)C(=O)N[C@@H](CO)C(=O)N[C@@H](CCCNC(=N)N)C(=O)NCC(=O)N[C@H](C(=O)N[C@@H](CCCNC(=N)N)C(=O)N1CCC[C@H]1C(=O)N[C@H](C(=O)NCC(=O)N[C@@H](CCCNC(=N)N)C(=O)N[C@@H](Cc1ccccc1)C(=O)NOC)C(C)C)[C@@H](C)CC)[C@@H](C)CC)[C@@H](C)O)[C@@H](C)CC)[C@@H](C)O [Analog 45] (Palmitoyl-SRTHRHSMEIRTPDINPAWYASRGIRPVGR-X1)	–
–	90	CCCCCCCCCCCCCCCC(=O)NCCCC[C@H](NC(=O)[C@@H](NC(=O)[C@H](CC(=O)O)NC(=O)[C@@H]1CCCN1C(=O)[C@@H](N)[C@@H](C)O)[C@@H](C)CC)C(=O)N1CCC[C@H]1C(=O)N[C@@H](C)C(=O)N[C@@H](Cc1c[nH]c2ccccc12)C(=O)N[C@@H](Cc1ccc(O)cc1)C(=O)N[C@@H](C)C(=O)N[C@@H](CO)C(=O)N[C@@H](CCCNC(=N)N)C(=O)NCC(=O)N[C@H](C(=O)N[C@@H](CCCNC(=N)N)C(=O)N1CCC[C@H]1C(=O)N[C@H](C(=O)NCC(=O)N[C@@H](CCCNC(=N)N)C(=O)N[C@@H](Cc1ccccc1)C(N)=O)C(C)C)[C@@H](C)CC [Analog 49] (H-TPDIK(Palmitoyl)PAWYASRGIRPVGRF-NH2)	Ki [1, 2]: 0.00434 ± 0.00045 µM

More lines, now with the values behind:

Compound	% of PrRP31, RC-4B/C rat pituitary cells (rat PrRP receptor) [%]	% of PrRP31, GPR10 human receptor transfected in CHO cells [1] [%]	also measured
CCCC[C@H](NC(=O)[C@H](CO)NC(=O)[C@H](Cc1c[nH]cn1)NC(=O)[C@H](CCC(N)=O)NC(=O)[C@H](Cc1c[nH]cn1)NC(=O)[C@H](C)NC(=O)[C@H](CCCNC(=N)N)NC(=O)[C@@H](N)CO)C(=O)N[C@@H](CCC(=O)O)C(=O)N[C@H](C(=O)N[C@@H](CCCNC(=N)N)C(=O)N[C@H](C(=O)N1CCC[C@H]1C(=O)N[C@@H](CC(=O)O)C(=O)N[C@H](C(=O)N[C@@H](CC(N)=O)C(=O)N1CCC[C@H]1C(=O)N[C@@H](C)C(=O)N[C@@H](Cc1c[nH]c2ccccc12)C(=O)N[C@@H](Cc1ccc(O)cc1)C(=O)N[C@H](C(=O)NCC(=O)N[C@@H](CCCNC(=N)N)C(=O)NCC(=O)N[C@H](C(=O)N[C@@H](CCCNC(=N)N)C(=O)N1CCC[C@H]1C(=O)N[C@H](C(=O)NCC(=O)N[C@@H](CCCNC(=N)N)C(=O)N[C@@H](Cc1cccc2ccccc12)C(N)=O)C(C)C)[C@@H](C)CC)[C@@H](C)O)[C@@H](C)CC)[C@@H](C)O)[C@@H](C)O [Analog 10] (H-SRAHQHS[Nle]ETRTPDINPAWYTGRGIRPVGR[1Nal]-NH2)	4.8	11	–
CCCCCCCCCCCCCCCC(=O)NCCCC[C@H](NC(=O)[C@@H]1CCCN1C(=O)[C@H](CC(N)=O)NC(=O)[C@@H](NC(=O)[C@H](CC(=O)O)NC(=O)[C@@H]1CCCN1C(=O)[C@@H](N)[C@@H](C)O)[C@@H](C)CC)C(=O)N[C@@H](Cc1c[nH]c2ccccc12)C(=O)N[C@@H](Cc1ccc(O)cc1)C(=O)N[C@@H](C)C(=O)N[C@@H](CO)C(=O)N[C@@H](CCCNC(=N)N)C(=O)NCC(=O)N[C@H](C(=O)N[C@@H](CCCNC(=N)N)C(=O)N1CCC[C@H]1C(=O)N[C@H](C(=O)NCC(=O)N[C@@H](CCCNC(=N)N)C(=O)N[C@@H](Cc1ccccc1)C(N)=O)C(C)C)[C@@H](C)CC [Analog 50] (H-TPDINPK(Palmitoyl)WYASRGIRPVGRF-NH2)	–	69	Ki [1, 2]: 0.00564 ± 0.00035 µM
SRAHQHSMETRTPDINPAWYTGRGIRPVGRF-NH2 [Rat PrRP31, reference compound]	–	–	Ki [1]: 0.00389 ± 0.00112 µM
